Source: the NIST ThermoML archive (doi:10.1016/j.fluid.2012.01.014)

Assay: cn = amount concentration of the nth substance listed, in mol/dm3
Details: Ring tensiometer

CCCCCCCCCCCCOS(=O)(=O)[O-].[Na+] [sodium dodecyl sulfate] + O
surface tension liquid-gas [mN/m]
Details | 293 K | 303 K | 313 K
c1 = 1e-08 | 72.8 | 71.2 | 69.6
c1 = 1e-07 | 72.9 | 71.19 | 69.6
c1 = 1e-06 | 72.79 | 71.17 | 69.58
c1 = 3.98e-06 | 72.78 | 71.15 | 69.56
c1 = 7.94e-06 | 72.76 | 71.14 | 69.53
c1 = 1e-05 | 72.75 | 71 | 69.51
c1 = 5.01e-05 | 72.69 | 70.81 | 69.48
c1 = 6.31e-05 | 72.46 | 70.59 | 69.27
c1 = 0.0001 | 72.24 | 70.01 | 69.05
c1 = 0.0002 | 71.62 | 69.29 | 67.85
c1 = 0.000631 | 68.1 | 66.62 | 65.14
c1 = 0.000794 | 66.25 | 65.21 | 64.01
c1 = 0.001 | 64.32 | 63.87 | 62.73
c1 = 0.002 | 57.43 | 57.02 | 55.94
c1 = 0.00398 | 49.72 | 49.52 | 48.45
c1 = 0.00631 | 43.37 | 42.98 | 41.7
c1 = 0.00794 | 38.88 | 38.34 | 36.91
c1 = 0.00832 | 38.4 | 38.21 | 36.42
c1 = 0.01 | 38.4 | 38.21 | 36.42

O [water] + CCCCCCCCCCCCN(C)CC(=O)[O-].[Na+]
c2 = 0
Details | surface tension liquid-gas [mN/m]
293 K | 72.8
303 K | 71.2
313 K | 69.6

CCCCCCCCCCCC[N+](C)(C)Cc1ccccc1.[Br-] [benzenemethanaminium, N-dodecyl-N,N-dimethyl, bromide] + O
surface tension liquid-gas [mN/m]
Details | 293 K | 303 K | 313 K
c1 = 1e-07 | 72.4 | 71.18 | 69.58
c1 = 5.01e-07 | 72.3 | 71.09 | 69.49
c1 = 1e-06 | 71.6 | 70.98 | 69.38
c1 = 5.01e-06 | 70.7 | 70.22 | 68.59
c1 = 1e-05 | 69.6 | 69.44 | 67.78
c1 = 5.01e-05 | 66.8 | 65.88 | 64.1
c1 = 0.0001 | 64.3 | 63.66 | 61.81
c1 = 0.000316 | 55.3 | 54.19 | 53.4
c1 = 0.000501 | 51.7 | 50.07 | 49.15
c1 = 0.001 | 46.2 | 44.48 | 43.37
c1 = 0.002 | 41.1 | 40 | 38.93
c1 = 0.00316 | 37.8 | 36.73 | 35.76
c1 = 0.00398 | 36 | 34.82 | 33.92
c1 = 0.00501 | 34.5 | 33.11 | 32.67
c1 = 0.00708 | 34.5 | 33.11 | 32.67
c1 = 0.01 | 34.4 | 33.11 | 32.67

O [water] + CCCCCCCCCCCCCCCCS(=O)(=O)[O-].[Na+]
c2 = 0
Details | surface tension liquid-gas [mN/m]
293 K | 72.8
303 K | 71.2
313 K | 69.6

CCCCCCCCCCCCN(C)CC(=O)[O-].[Na+] [sodium laurylsarcosinate] + O
surface tension liquid-gas [mN/m]
Details | 293 K | 303 K | 313 K
c1 = 1e-07 | 72.4 | 71.19 | 69.59
c1 = 5.01e-07 | 72.2 | 71.15 | 69.56
c1 = 1e-06 | 72 | 71.1 | 69.52
c1 = 5.01e-06 | 71.6 | 70.72 | 69.2
c1 = 1e-05 | 71.4 | 70.28 | 68.83
c1 = 5.01e-05 | 69 | 67.57 | 66.49
c1 = 0.0001 | 65.5 | 65.33 | 64.45
c1 = 0.000501 | 48.6 | 48.46 | 48.32
c1 = 0.000631 | 46.3 | 46.1 | 46
c1 = 0.000708 | 44.9 | 44.03 | 43.82
c1 = 0.000794 | 43.6 | 42.91 | 42.71
c1 = 0.000891 | 42.3 | 41.85 | 41.15
c1 = 0.001 | 41.1 | 40.33 | 39.51
c1 = 0.002 | 32.9 | 32.39 | 31.83
c1 = 0.00316 | 28.3 | 28 | 27.5
c1 = 0.00398 | 26.9 | 26.65 | 26.12
c1 = 0.00501 | 26.5 | 26.45 | 25.48
c1 = 0.01 | 26.5 | 26.45 | 25.42

O [water] + CCCCCCCCCCCC[N+](C)(C)Cc1ccccc1.[Br-]
c2 = 0
Details | surface tension liquid-gas [mN/m]
293 K | 72.8
303 K | 71.2
313 K | 69.6

O [water] + CCCCCCCCCCCC[N+](C)(C)CC.[Br-]
c2 = 0
Details | surface tension liquid-gas [mN/m]
293 K | 72.8
303 K | 71.2
313 K | 69.6

CCCCCCCCCCCCCCCCS(=O)(=O)[O-].[Na+] [sodium hexadecylsulfonate] + O
surface tension liquid-gas [mN/m]
Details | 293 K | 303 K | 313 K
c1 = 1e-08 | 72.8 | 71.2 | 69.6
c1 = 1e-07 | 72.8 | 71.19 | 69.6
c1 = 1e-06 | 72.7 | 71.15 | 69.55
c1 = 3.98e-06 | 72.6 | 70.99 | 69.42
c1 = 5.01e-06 | 72.5 | 70.89 | 69.31
c1 = 6.03e-06 | 72.4 | 70.77 | 69.21
c1 = 7.94e-06 | 72.3 | 70.69 | 69.09
c1 = 1e-05 | 72.2 | 70.54 | 68.99
c1 = 2e-05 | 71.6 | 69.98 | 68.41
c1 = 6.03e-05 | 69 | 68.49 | 67.04
c1 = 0.0001 | 66.2 | 65.54 | 64.15
c1 = 0.0002 | 59.15 | 58.94 | 58.84
c1 = 0.000603 | 43.23 | 43.17 | 43.12
c1 = 0.000741 | 40.28 | 40.07 | 39.97
c1 = 0.000891 | – | 38.59 | 38.55
